According to patent US9980943B2, “Methods of treating muscular dystrophy” (BOARD OF REGENTS OF THE NEVADA SYSTEM OF HIGHER EDUCATION, …, priority 2013, dated 2018):
Like-named read-outs stand apart in the source and are kept apart here.

How the values were obtained:
Assay type in all cases: cell-based, mouse
[1] = system: α7 integrin (LacZ reporter in α7βgal+/− myoblasts); assay: Myoblast α7+/LacZ integrin FDG assay (Burkin assay in myoblasts, 96-well); settings: α7+/LacZ myoblasts, 96-well; for fold induction at 0.5 µM / fold induction at 1 µM / fold induction at 5 µM / fold induction at 10 µM / fold induction at 20 µM / fold induction at 40 µM: Mus musculus, Myoblast, 48 h
[2] = system: α7 integrin (LacZ reporter in α7+/LacZ myotubes); assay: Myotube α7 integrin FDG assay (Burkin assay in myotubes, 96-well); settings: myotubes; for fold induction at 0.5 µM / fold induction at 1 µM / fold induction at 5 µM / fold induction at 10 µM / fold induction at 20 µM / fold induction at 40 µM: Mus musculus, Myotube
[3] = system: β-galactosidase in CMV-LacZ C2C12 myotubes; assay: CMV-LacZ secondary screen in C2C12 myotubes (β-Gal stabilizing assay); settings: for CMV-LACZ in Myotubes (β-galactosidase activity relative to DMSO): CMV-LacZ C2C12 myotubes, 96-well format
Summary of the method: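 A secondary screen identifies compounds that stabilize β-gal independently of the native promoter, using CMV-LacZ C2C12 cells. Curves span 0.5–40 μM at six levels, in duplicate.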

[4] = 5 uM, C2C12 CMV-LacZ myotubes, fold relative to DMSO
[5] = 10 uM, C2C12 CMV-LacZ myotubes, fold relative to DMSO
[6] = 20 uM, C2C12 CMV-LacZ myotubes, fold relative to DMSO
[7] = 40 uM, C2C12 CMV-LacZ myotubes, fold relative to DMSO

## COc1ccc(Cl)cc1NC(=O)CC(=O)Nc1cc(Cl)ccc1OC [MLS001166704-01]
[1]; 0.5 uM
  Burkin Assay in Myoblasts, signal relative to DMSO: 1.109
[1]; 1 uM
  Burkin Assay in Myoblasts, signal relative to DMSO: 1.165
[1]; 5 uM
  Burkin Assay in Myoblasts, signal relative to DMSO: 0.8499
[1]; 10 uM
  Burkin Assay in Myoblasts, signal relative to DMSO: 0.7652
[1]; 20 uM
  Burkin Assay in Myoblasts, signal relative to DMSO: 0.5747
[1]; 40 uM
  Burkin Assay in Myoblasts, signal relative to DMSO: 0.4394
[2]; 0.5 uM
  Burkin Assay in Myotubes, α7 integrin LacZ reporter signal relative to DMSO: 1.166
[2]; 1 uM
  Burkin Assay in Myotubes, α7 integrin LacZ reporter signal relative to DMSO: 1.268
[2]; 5 uM
  Burkin Assay in Myotubes, α7 integrin LacZ reporter signal relative to DMSO: 0.8936
[2]; 10 uM
  Burkin Assay in Myotubes, α7 integrin LacZ reporter signal relative to DMSO: 1.065
[2]; 20 uM
  Burkin Assay in Myotubes, α7 integrin LacZ reporter signal relative to DMSO: 0.7918
[2]; 40 uM
  Burkin Assay in Myotubes, α7 integrin LacZ reporter signal relative to DMSO: 0.81
[3]; [4]
  CMV-LACZ in Myotubes, signal relative to DMSO: 1.088
[3]; [5]
  CMV-LACZ in Myotubes, signal relative to DMSO: 1.1553
[3]; [6]
  CMV-LACZ in Myotubes, signal relative to DMSO: 1.4595
[3]; [7]
  CMV-LACZ in Myotubes, signal relative to DMSO: 1.0685

## COc1nccc(NCc2ccccc2)c1C#N [MLS001077207-01]
[1]; 0.5 uM, read-out: Burkin Assay in Myoblasts, signal relative to DMSO
  fold induction at 0.5 µM: 0.97
[1]; 1 uM, read-out: Burkin Assay in Myoblasts, signal relative to DMSO
  fold induction at 1 µM: 1.01
[1]; 5 uM, read-out: Burkin Assay in Myoblasts, signal relative to DMSO
  fold induction at 5 µM: 1.05
[1]; 10 uM, read-out: Burkin Assay in Myoblasts, signal relative to DMSO
  fold induction at 10 µM: 1.06
[1]; 20 uM, read-out: Burkin Assay in Myoblasts, signal relative to DMSO
  fold induction at 20 µM: 1.01
[1]; 40 uM, read-out: Burkin Assay in Myoblasts, signal relative to DMSO
  fold induction at 40 µM: 1.15
[2]; 0.5 uM, read-out: Burkin Assay in Myotubes, α7 integrin LacZ reporter signal relative to DMSO
  fold induction at 0.5 µM: 0.985
[2]; 1 uM, read-out: Burkin Assay in Myotubes, α7 integrin LacZ reporter signal relative to DMSO
  fold induction at 1 µM: 1.06
[2]; 5 uM, read-out: Burkin Assay in Myotubes, α7 integrin LacZ reporter signal relative to DMSO
  fold induction at 5 µM: 1.42
[2]; 10 uM, read-out: Burkin Assay in Myotubes, α7 integrin LacZ reporter signal relative to DMSO
  fold induction at 10 µM: 1.15
[2]; 20 uM, read-out: Burkin Assay in Myotubes, α7 integrin LacZ reporter signal relative to DMSO
  fold induction at 20 µM: 1.01
[2]; 40 uM, read-out: Burkin Assay in Myotubes, α7 integrin LacZ reporter signal relative to DMSO
  fold induction at 40 µM: 1.21
[3]; Mus musculus, C2C12, read-out: CMV-LACZ in Myotubes, signal relative to DMSO, 5 uM, C2C12 CMV-LacZ myotubes, fold relative to DMSO
  fold induction at 5 µM: 0.952
[3]; Mus musculus, C2C12, read-out: CMV-LACZ in Myotubes, signal relative to DMSO, 10 uM, C2C12 CMV-LacZ myotubes, fold relative to DMSO
  fold induction at 10 µM: 1.04
[3]; Mus musculus, C2C12, read-out: CMV-LACZ in Myotubes, signal relative to DMSO, 20 uM, C2C12 CMV-LacZ myotubes, fold relative to DMSO
  fold induction at 20 µM: 0.866
[3]; Mus musculus, C2C12, read-out: CMV-LACZ in Myotubes, signal relative to DMSO, 40 uM, C2C12 CMV-LacZ myotubes, fold relative to DMSO
  fold induction at 40 µM: 0.782

## CC1CCN(S(=O)(=O)c2ccc(S(=O)(=O)N3CCCC3)cc2)CC1 [MLS001217673-01]
[1]; 0.5 uM
  Burkin Assay in Myoblasts, signal relative to DMSO: 0.8494
[1]; 1 uM
  Burkin Assay in Myoblasts, signal relative to DMSO: 0.8343
[1]; 5 uM
  Burkin Assay in Myoblasts, signal relative to DMSO: 0.9353
[1]; 10 uM
  Burkin Assay in Myoblasts, signal relative to DMSO: 0.9256
[1]; 20 uM
  Burkin Assay in Myoblasts, signal relative to DMSO: 0.8325
[1]; 40 uM
  Burkin Assay in Myoblasts, signal relative to DMSO: 0.8079
[2]; 0.5 uM
  Burkin Assay in Myotubes, α7 integrin LacZ reporter signal relative to DMSO: 0.8894
[2]; 1 uM
  Burkin Assay in Myotubes, α7 integrin LacZ reporter signal relative to DMSO: 0.749
[2]; 5 uM
  Burkin Assay in Myotubes, α7 integrin LacZ reporter signal relative to DMSO: 0.9699
[2]; 10 uM
  Burkin Assay in Myotubes, α7 integrin LacZ reporter signal relative to DMSO: 0.9516
[2]; 20 uM
  Burkin Assay in Myotubes, α7 integrin LacZ reporter signal relative to DMSO: 1.095
[2]; 40 uM
  Burkin Assay in Myotubes, α7 integrin LacZ reporter signal relative to DMSO: 1.078
[3]; [4]
  CMV-LACZ in Myotubes, signal relative to DMSO: 0.936
[3]; [5]
  CMV-LACZ in Myotubes, signal relative to DMSO: 0.9409
[3]; [6]
  CMV-LACZ in Myotubes, signal relative to DMSO: 1.161
[3]; [7]
  CMV-LACZ in Myotubes, signal relative to DMSO: 0.9352

## CNC(=S)N1CCC(NC(=O)C(Cc2ccc(F)cc2)NC(C)=O)CC1 (stereo not shown) [MLS000710130-01]
[1]; 0.5 uM
  Burkin Assay in Myoblasts, value relative to DMSO: 0.9666
[1]; 1 uM
  Burkin Assay in Myoblasts, value relative to DMSO: 1.103
[1]; 5 uM
  Burkin Assay in Myoblasts, value relative to DMSO: 1.006
[1]; 10 uM
  Burkin Assay in Myoblasts, value relative to DMSO: 1.036
[1]; 20 uM
  Burkin Assay in Myoblasts, value relative to DMSO: 0.8326
[1]; 40 uM
  Burkin Assay in Myoblasts, value relative to DMSO: 0.8689
[2]; 0.5 uM
  Burkin Assay in Myotubes (signal relative to DMSO): 0.9811
[2]; 1 uM
  Burkin Assay in Myotubes (signal relative to DMSO): 0.8524
[2]; 5 uM
  Burkin Assay in Myotubes (signal relative to DMSO): 0.6183
[2]; 10 uM
  Burkin Assay in Myotubes (signal relative to DMSO): 0.6452
[2]; 20 uM
  Burkin Assay in Myotubes (signal relative to DMSO): 1.044
[2]; 40 uM
  Burkin Assay in Myotubes (signal relative to DMSO): 1.064
[3]; [4]
  CMV-LACZ in Myotubes, signal relative to DMSO: 0.8144
[3]; [5]
  CMV-LACZ in Myotubes, signal relative to DMSO: 0.8646
[3]; [6]
  CMV-LACZ in Myotubes, signal relative to DMSO: 0.9864
[3]; [7]
  CMV-LACZ in Myotubes, signal relative to DMSO: 0.9336

## CN(C)S(=O)(=O)c1ccc(C(=O)Nc2nc3ccccc3[nH]2)cc1 [MLS000774940-01]
[1]; 0.5 uM
  Burkin Assay in Myoblasts, value relative to DMSO: 0.9309
[1]; 1 uM
  Burkin Assay in Myoblasts, value relative to DMSO: 0.8928
[1]; 5 uM
  Burkin Assay in Myoblasts, value relative to DMSO: 1.095
[1]; 10 uM
  Burkin Assay in Myoblasts, value relative to DMSO: 1.043
[1]; 20 uM
  Burkin Assay in Myoblasts, value relative to DMSO: 0.858
[1]; 40 uM
  Burkin Assay in Myoblasts, value relative to DMSO: 0.7761
[2]; 0.5 uM
  Burkin Assay in Myotubes (signal relative to DMSO): 0.9469
[2]; 1 uM
  Burkin Assay in Myotubes (signal relative to DMSO): 0.9777
[2]; 5 uM
  Burkin Assay in Myotubes (signal relative to DMSO): 1.01
[2]; 10 uM
  Burkin Assay in Myotubes (signal relative to DMSO): 0.9908
[2]; 20 uM
  Burkin Assay in Myotubes (signal relative to DMSO): 1.084
[2]; 40 uM
  Burkin Assay in Myotubes (signal relative to DMSO): 0.878
[3]; 5 uM
  CMV-LACZ in Myotubes (β-galactosidase activity relative to DMSO): 0.954
[3]; 10 uM
  CMV-LACZ in Myotubes (β-galactosidase activity relative to DMSO): 0.8604
[3]; 20 uM
  CMV-LACZ in Myotubes (β-galactosidase activity relative to DMSO): 1.171
[3]; 40 uM
  CMV-LACZ in Myotubes (β-galactosidase activity relative to DMSO): 1.005

## Cc1ccccc1C(=O)Nc1nnc(SC(C)C)s1 [MLS000683174-01]
[1]; 0.5 uM
  Burkin Assay in Myoblasts, value relative to DMSO: 1.02
[1]; 1 uM
  Burkin Assay in Myoblasts, value relative to DMSO: 0.9176
[1]; 5 uM
  Burkin Assay in Myoblasts, value relative to DMSO: 1.02
[1]; 10 uM
  Burkin Assay in Myoblasts, value relative to DMSO: 1.014
[1]; 20 uM
  Burkin Assay in Myoblasts, value relative to DMSO: 1.028
[1]; 40 uM
  Burkin Assay in Myoblasts, value relative to DMSO: 0.8059
[2]; 0.5 uM
  Burkin Assay in Myotubes (signal relative to DMSO): 1.145
[2]; 1 uM
  Burkin Assay in Myotubes (signal relative to DMSO): 0.9165
[2]; 5 uM
  Burkin Assay in Myotubes (signal relative to DMSO): 1.007
[2]; 10 uM
  Burkin Assay in Myotubes (signal relative to DMSO): 0.8907
[2]; 20 uM
  Burkin Assay in Myotubes (signal relative to DMSO): 1.081
[2]; 40 uM
  Burkin Assay in Myotubes (signal relative to DMSO): 0.9864
[3]; [4]
  CMV-LACZ in Myotubes, signal relative to DMSO: 1.156
[3]; [5]
  CMV-LACZ in Myotubes, signal relative to DMSO: 1.0866
[3]; [6]
  CMV-LACZ in Myotubes, signal relative to DMSO: 1.035
[3]; [7]
  CMV-LACZ in Myotubes, signal relative to DMSO: 1.238

## CCCCNC(=O)CN(C(=O)c1snc(C(=O)NC2CCCCC2)c1N)c1ccc(OC)cc1OC [MLS001217697-01]
[1]; 0.5 uM, read-out: Burkin Assay in Myoblasts, value relative to DMSO
  fold induction at 0.5 µM: 1.09
[1]; 1 uM, read-out: Burkin Assay in Myoblasts, value relative to DMSO
  fold induction at 1 µM: 1.12
[1]; 5 uM, read-out: Burkin Assay in Myoblasts, value relative to DMSO
  fold induction at 5 µM: 1.18
[1]; 10 uM, read-out: Burkin Assay in Myoblasts, value relative to DMSO
  fold induction at 10 µM: 1.16
[1]; 20 uM, read-out: Burkin Assay in Myoblasts, value relative to DMSO
  fold induction at 20 µM: 0.883
[1]; 40 uM, read-out: Burkin Assay in Myoblasts, value relative to DMSO
  fold induction at 40 µM: 1.01
[2]; 0.5 uM, read-out: Burkin Assay in Myotubes (signal relative to DMSO)
  fold induction at 0.5 µM: 1.2
[2]; 1 uM, read-out: Burkin Assay in Myotubes (signal relative to DMSO)
  fold induction at 1 µM: 0.968
[2]; 5 uM, read-out: Burkin Assay in Myotubes (signal relative to DMSO)
  fold induction at 5 µM: 1.16
[2]; 10 uM, read-out: Burkin Assay in Myotubes (signal relative to DMSO)
  fold induction at 10 µM: 1.2
[2]; 20 uM, read-out: Burkin Assay in Myotubes (signal relative to DMSO)
  fold induction at 20 µM: 1.12
[2]; 40 uM, read-out: Burkin Assay in Myotubes (signal relative to DMSO)
  fold induction at 40 µM: 1.12
[3]; 5 uM
  CMV-LACZ in Myotubes (β-galactosidase activity relative to DMSO): 1.2
[3]; 10 uM
  CMV-LACZ in Myotubes (β-galactosidase activity relative to DMSO): 0.8647
[3]; 20 uM
  CMV-LACZ in Myotubes (β-galactosidase activity relative to DMSO): 0.764
[3]; 40 uM
  CMV-LACZ in Myotubes (β-galactosidase activity relative to DMSO): 0.7395
